Results on one compound are retold here after patent US11052142B2, “Modified endotoxic bacteria lipopolysaccharide (variants), combination of modified lipopolysaccharides (variants) and, containing same, a vaccine (variants) and a pharmaceutical composition (variants)” (priority 2013, dated 2021).

Structures are written as SMILES. Like-named read-outs stand apart in the source and are kept apart here.

For series [1], the system named is TNF-α. As to the kind of experiment: In vivo production of TNF-α in blood serum after i.v. administration to mice (data from patent RU 2154068). An excerpt:
In this case the vertical axis represents the values for TNF-α concentrations (pg/mL) and the values for IL-6 concentrations (ng/mL). The horizontal axis represents (A and B) the values for injection dose of preparation OM174 (mg/kg) to mice. The vertical axis (C) represents the value for injection dose of LPS ([…]; positive control) and saline solution (0.85% NaCl solution; negative control) to mice.
The solid lines represent the lines of extrapolation for the values of doses for OM174: 0.20; 2.00; 2.01; 3.40 and 28.10 (A and B) and the values of doses for Westphal LPS E coli O:111B4: 0.002; 0.020; 0.200 and 2.000 (C).
According to data from patent RU 2154068, tri-acylated and tetra-acylated lipids A of E. coli, H. influenzae and P. aeruginosa are powerful inducers of mediator of endotoxin reaction—TNF-α. Table 1 represents data extrapolated from graphs on FIG. 1 (A, B, C) relating to in vivo TNF-α production in serum after i.v. administration of tri-acylated lipid A (3-acLA) of E. coli OM-174 and Westphal LPS E. coli O:111B4 to mice. Only 10-fold difference was detected for induction of TNF-α in vivo between E. coli OM-174 tri-acylated lipid A and commercially available endotoxin Westphal LPS E. coli O:111 B4, it is evidence that there is essential endotoxicity of E. coli tri-acetylated lipid A, excluding its use both as vaccine or vaccine component (adjuvant).

The subject of series [2] is TNF-α. The conditions noted are these: mice, i.v., extrapolated from graphs of RU 2154068, cited from earlier work.

As to `CCCCCCCCCCCC(=O)O[C@H](CCCCCCCCCCC)CC(=O)N[C@H]1[C@H](OC[C@H]2O[C@H](OP(=O)(O)O)[C@H](NC(=O)C[C@H](O)CCCCCCCCCCC)[C@@H](O)[C@@H]2O)O[C@H](CO)[C@@H](OP(=O)(O)O)[C@@H]1O` [3-acLA E. coli - OM174], in series [1], the “difference for induction of TNF-α in vivo versus Westphal LPS E. coli O:111 B4” value is 10 fold. Besides, the TNF-α concentration in series [2] (dose 0.2 mg/kg) is 328 pg/mL; in series [2] (dose 2.0 mg/kg), 1644 pg/mL; in series [2] (dose 2.01 mg/kg) it was 1416 pg/mL; in series [2] (dose 3.4 mg/kg), 2000 pg/mL; in series [2] (dose 28.1 mg/kg), 2750 pg/mL.
